Data published in patent US5691365A, “Nicotinic receptor antagonists in the treatment of neuropharmacological disorders” (University of Kentucky Research Foundation, priority 1995, dated 1997).
“And” between values parts separate entries of the source, which are not always exact repeats. Identical values can stand only once. “Also recorded” adds a separate entry of the source.

Tests used:
[1] = test system: [^3 H]DA release from rat striatal slices; test: [3H]DA release assay: compound-evoked (intrinsic agonist) release; type: cell-based; parameters: key to total [3H]overflow (effect on [3H]DA release): summed increase in fractional release (sample tritium / tissue tritium); details: for total [3H]overflow (effect on [3H]DA release): mean ± S.E.M.; for total [3H]overflow (effect on [3H]DA release) / effect on [3H]DA release / intrinsic agonist activity (in words): rat striatal slices
Method: (§1) Biological Methods. Male Spragua-Dawley rats (150-200 g) were obtained from Harlan Laboratories (Indianapolis, Ind.) and were housed two per cage with free access to food and water in the Division of Lab Animal Resources at the College of Pharmacy at the University of Kentucky. Experimental protocols involving the animals were approved by the Institutional Animal Care and Use Committee at the University of Kentucky.
(§2) [^3 H]DA Release Assay. Rat striatal slices (500 μm thickness, 6-8 mg wet weight) were obtained as previously described (Dwoskin and Zahniser, 1986). Slices were incubated for 30 min in Krebs' buffer ([…]; 118 NaCl, 4.7 KCl, 1.2 MgCl2, 1.0 NaH2 PO4, 1.3 CaCl2, […], 11.1 glucose, 25 NaHCO3, 0.11 L-ascorbic acid nd 0.004 disodium EDTA; pH 7.4 and saturated with 95% O2 /5% CO2) in a metabolic shaker at 34°. Slices were rinsed with 15 ml of fresh buffer and incubated for an additional 30 min in fresh buffer containing 0.1 μM [^3 H]dopamine (6 slices/3 ml). Subsequently, slices were rinsed with 15 ml of fresh buffer and transferred to a glass superfusion chamber. Slices were superfused (1.0 ml/min) for 60 min with Krebs' buffer containing nomifensine (10 μm) and pargyline (10 μm) and maintained at 34° C., pH 7.4 with continual aeration (95% O2 /5% CO2). Two 5-min samples (5 ml) were collected to determine basal outflow of [^3 H]DA. N-Substituted nicotine analogues were added to the superfusion buffer after the collection of the second sample and remained in the buffer until 12 consecutive 5-min samples were collected. […] At the end of the experiment each slice was solubilized and the [^3 H] content of the tissue determined.
(§3) Radioactivity in the superfusate and tissue samples was determined by liquid scintillation spectroscopy. Fractional release for each superfusate sample was calculated by dividing the total tritium collected in each sample by the total tritium present in the tissue at the time of sample collection. Basal [^3 H]out flow was calculated from the average of the tritium collected in the two 5-min samples just before addition of the N-substituted nicotine analogue. The sums of the increase in collected tritium resulting from either exposure to the test compound or exposure to nicotine in the absence and presence of the test compound equaled total [^3 H]overflow. [^3 H]overflow was calculated by subtracting the [^3 H]outflow during an equivalent period of prestimulation from the values in samples collected during and after drug exposure. Inasmuch as the radiolabelled compounds were not separated and identified, the tritium collected in superfusate is referred to as either [^3 H]outflow or [^3 H]overflow, rather than as [^3 H]DA. [^3 H]Overflow primarily represents [^3 H]DA in the presence of nomifensine and pargyline in the superfusion buffer (Zumstein et al. 1981).

[2] = test system: S(-)nicotine (10 μM)-evoked [^3 H]DA release from rat striatal slices; type: cell-based
Method: as §1, §2, §3
In these experiments, the striatal slices were superfused for 60 min with various concentrations of the analogues prior to nicotine (10 μM) exposure. Antagonist activity was evaluated by comparing the nicotine-evoked [^3 H]overflow in the absence and presence of the analogues. […] The relative order of potency of the classical and pyridine-N substituted nicotine analogues for inhibition of nicotine-evoked [^3 H]DA release from rat striatal slices is illustrated in FIG. 2 by a comparison of their IC50 values.
FIG. 2. IC50 values for N-substituted analogues of nicotine, nornicotine, and cotinine to inhibit nicotine-evoked [^3 H]DA release from rat striatal slices. Inhibition produced by the classical nicotinic inhibitors, mecamylamine (MEC) and DHBE was also determined. Slices were superfused with inhibitor for 60 min […] co-superfusion with 10 μM nicotine. Inhibition was determined by comparing [^3 H]DA release in the absence and presence of various concentrations of inhibitor. IC50 values were determined using the Logit-log plot (pseudo-Hill plot). […] IC50 for each animal was determined as the intercept of the linear regression.

[3] = Rattus norvegicus, read-out: evoked [3H]DA release relative to S(-)nicotine

SMILES	total [3H]overflow (effect on [3H]DA release) ([1]; Table 3, 1 μM)	total [3H]overflow (effect on [3H]DA release) ([1]; Table 3, 10 μM)	total [3H]overflow (effect on [3H]DA release) ([1]; Table 3, 100 μM)	nicotinic antagonist activity / inhibition of nicotine-evoked [3H]DA release (in words) [2]	relative order of potency for inhibition of nicotine-evoked [3H]DA release (comparison of IC50 values) [2]	effect on [3H]DA release / intrinsic agonist activity (in words) ([1]; 1-100 μM)	total [3H]overflow during cosuperfusion with 10 μM nicotine [2]	also measured
CN1CCC[C@H]1c1ccc[n+](CCO)c1 [NHENI, S-N-hydroxyethyl nicotinium iodide]	0.00 ± 0.00	0.00 ± 0.00	0.08 ± 0.04	Significant antagonist activity; also recorded: preferred nicotinic receptor antagonist activity	NHENI>>>(±)di-N-allyl nicotinium iodide (DNANI)			
CN1CCC[C@H]1c1ccc[n+](Cc2ccccc2)c1 [NBNB, S-N-benzyl nicotinium bromide]	0.21 ± 0.12	0.28 ± 0.12	6.04 ± 0.97	Significant antagonist activity; also recorded: significantly lower potency and efficacy; also recorded: possessing antagonist activity; also recorded: preferred nicotinic receptor antagonist activity	NBNB=NPNI=NnNBI=NANI>NHENI	evoked [^3 H]DA release and thus, possess intrinsic agonist activity at this concentration	1.50 ± 0.55 and 1.27 ± 0.35	
CO[C@H]1CC=C2CCN3CCC4=C(CC(=O)OC4)[C@]23C1 [DHBE, dihydro-β-erythroidine, reference compound]	0.02 ± 0.02	0.36 ± 0.22	2.01 ± 0.28	inhibited but did not completely block nicotine's effect	DHBE=MEC>>NBNB	None of the compounds examined, including DHBE and mecamylmine, had any significant effect on [^3 H]DA release in the concentration range of 1-10 μM; also recorded: also evoked [^3 H]DA release; also recorded: evoked [^3 H]DA release at the highest concentration examined		
CCCC[n+]1cccc([C@@H]2CCCN2C)c1 [NnBNI, S-N-nbutyl nicotinium iodine]	0.00 ± 0.00	0.01 ± 0.01	0.01 ± 0.01	Significant antagonist activity; also recorded: significantly lower potency and efficacy; also recorded: preferred nicotinic receptor antagonist activity	NBNB=NPNI=NnNBI=NANI>NHENI			
C[n+]1cccc(C2CCCN2)c1 (racemic) [(±)NMNNI, (±)N-methyl nornicotinium iodide]	0.17 ± 0.11	0.01 ± 0.01	2.60 ± 0.38	did not exhibit significant nicotinic antagonist activity over the concentration range tested	(±)di-N-allyl nicotinium iodide (DNANI)=(±)N-methyl nornicotinium iodide (NMNNI)=NMNI	evoked [^3 H]DA release and thus, possess intrinsic agonist activity at this concentration	2.22 ± 1.26 and 3.53 ± 0.85	
CCCCCCCC[n+]1cccc([C@@H]2CCCN2C)c1 [NONI, S-N-octylnicotinium iodide]	0.03 ± 0.02	0.14 ± 0.14	16.4 ± 2.00	Significant antagonist activity; also recorded: completely inhibited nicotine-evoked [^3 H]DA release; also recorded: Greatest antagonist potency; also recorded: preferred nicotinic receptor antagonist activity; also recorded: most efficacious and potent compound in the series; also recorded: completely blocked the effect of nicotine to evoke [^3 H]DA release	NONI>>DHBE=MEC	possessed intrinsic agonist activity at this high concentration; also recorded: did not possess agonist activity at concentrations which completely blocked nicotine-evoked [^3 H]DA release		agonist activity relative to nicotine [1]: three-times the agonist activity of nicotine; effect on [3H]DA release / intrinsic agonist activity (in words) ([1]; 1-100 μM, listed as HONI): evoked [^3 H]DA release and thus, possess intrinsic agonist activity at this concentration; potency relative to mecamylamine and dihydro-β-erythroidine [2]: approximately half that of the classical nicotinic antagonists; concentration for intrinsic agonist activity relative to that required to completely inhibit nicotine-evoked [3H]DA release ([2]; fold higher): 10 fold
c1cncc([C@@H]2CCCN2)c1 (racemic) [(±)nornicotine, racemic nornicotine, reference compound]								Emax [1, 3]: ~80%; Emax at 1 µM [1, 3]: 50%; total [3H]overflow (effect on [3H]DA release) ([1]; Table 2, 1 μM): 1.40 ± 0.24; total [3H]overflow (effect on [3H]DA release) ([1]; Table 2, 10 μM): 2.60 ± 0.38; total [3H]overflow (effect on [3H]DA release) ([1]; Table 2, 100 μM): 4.20 ± 0.34; effect on [3H]DA release / intrinsic agonist activity (in words) ([1]; 1-100 μM as stated, listed as Racemic nornicotine): concentration-dependent increase in [^3 H]DA release; effect on [3H]DA release / intrinsic agonist activity (in words) ([1]; 1-100 μM as stated, listed as nornicotine): less potent in producing this effect
CNC1(C)C2CCC(C2)C1(C)C (centres unmarked) [MEC, mecamylamine, reference compound]	0.00 ± 0.00	0.00 ± 0.00	0.00 ± 0.00	inhibited but did not completely block nicotine's effect	DHBE=MEC>>NBNB	None of the compounds examined, including DHBE and mecamylmine, had any significant effect on [^3 H]DA release in the concentration range of 1-10 μM		
CN1C(=O)CC[C@H]1c1cccnc1 [S(-)cotinine, reference compound]								Emax [1, 3]: 35%; total [3H]overflow (effect on [3H]DA release) ([1]; Table 2, 1 μM): 0 ± 0; total [3H]overflow (effect on [3H]DA release) ([1]; Table 2, 10 μM): 1.14 ± 0.36; total [3H]overflow (effect on [3H]DA release) ([1]; Table 2, 100 μM): 2.06 ± 0.35; effect on [3H]DA release / intrinsic agonist activity (in words) ([1]; 1-100 μM as stated, listed as Cotinine): no effect at 1 μM; effect on [3H]DA release / intrinsic agonist activity (in words) ([1]; 1-100 μM as stated, listed as S(-)Cotinine): little effect even at high concentrations in the DA release assay
C[N+]1(C)CCC[C@H]1c1cccnc1 [PIPNMN, S-N'-methyl nicotinium iodide]	0.03 ± 0.03	0.01 ± 0.01	0.05 ± 0.02	did not exhibit significant nicotinic antagonist activity over the concentration range tested	NMNI=S-N-methylcotininium iodide (NMCI)=S-N'-methyl nicotinium iodide (PIPNMN)		3.16 ± 1.46 and 2.98 ± 1.48 and 1.88 ± 0.77	
